Laboratory results taken from ChEMBL document CHEMBL6092142, “Discovery and preclinical profile of YK-2168, a differentiated selective CDK9 inhibitor in clinical development” (Bioorg Med Chem Lett, 2024).
Converted amounts (≈) assume the structure as drawn. The source made the active and inactive calls. The calls are words filed in the database; no cut-off is given here.

Legend:
MV4-11 [1] = test: Antitumor activity against human MV4-11 cells xenografted in mouse assessed as reduction in MYC level in tumor at 5 to 15 mg/kg, iv measured upto 24 hrs by Western blot analysis; format: functional, organism-based; conditions: dose 5-15 mg/kg
Cytochrome P450 2C8 [2] = target: T1, Cytochrome P450 2C8 (Homo sapiens, UniProt P10632); test: Inhibition of CYP2C8 (unknown origin); format: ADME
T1 sequence (P10632 whole entry): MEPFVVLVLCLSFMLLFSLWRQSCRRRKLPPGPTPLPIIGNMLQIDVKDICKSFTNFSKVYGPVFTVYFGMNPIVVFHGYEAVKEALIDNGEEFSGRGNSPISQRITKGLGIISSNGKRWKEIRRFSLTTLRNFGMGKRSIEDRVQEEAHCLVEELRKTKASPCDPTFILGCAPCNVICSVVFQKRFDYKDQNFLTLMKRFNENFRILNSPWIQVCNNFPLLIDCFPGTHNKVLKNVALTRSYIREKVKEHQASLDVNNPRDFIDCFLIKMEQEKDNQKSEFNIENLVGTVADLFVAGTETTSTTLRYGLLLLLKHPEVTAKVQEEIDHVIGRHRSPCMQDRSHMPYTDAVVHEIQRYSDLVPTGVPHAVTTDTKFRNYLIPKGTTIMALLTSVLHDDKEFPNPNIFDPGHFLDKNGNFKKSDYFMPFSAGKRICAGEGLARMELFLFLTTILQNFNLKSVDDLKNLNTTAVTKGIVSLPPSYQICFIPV

Cytochrome P450 2C8 [3] = target: T1, Cytochrome P450 2C8; test: Time dependent inhibition of CYP2C8 (unknown origin); format: ADME
[4] = target: Cyclin-dependent kinase 2 (Homo sapiens, UniProt P24941); test: Inhibition of CDK2 (unknown origin)
Cytochrome P450 2C9 [5] = target: T2, Cytochrome P450 2C9 (Homo sapiens, UniProt P11712); test: Inhibition of CYP2C9 (unknown origin); format: ADME
[6] = Selectivity index, ratio of IC50 for inhibition of CDK1 (unknown origin) to IC50 for inhibition of CDK9 (unknown origin)
[7] = Metabolic stability in mouse hepatocytes assessed as half life; format: ADME, cell-based, Hepatocyte
MV4-11 [8] = test: Antitumor activity against human MV4-11 cells xenografted in iv dosed mouse assessed as reduction in pol II CTD level in tumor measured upto 24 hrs by Western blot analysis; format: functional, organism-based; conditions: dose 5-15 mg/kg
[9] = Selectivity index, ratio of IC50 for inhibition of CDK2 (unknown origin) to IC50 for inhibition of CDK9 (unknown origin)
SNU-16 = test: Antitumor activity against human SNU-16 cells xenografted in iv dosed mouse assessed as tumor growth inhibition; format: functional, organism-based; conditions: dose 5-15 mg/kg
[10] = Volume of distribution in Beagle dog at 1 mg/kg, iv; format: ADME, organism-based, Canis lupus familiaris; conditions: in vivo
Cytochrome P450 2D6 [11] = target: T3, Cytochrome P450 2D6 (Homo sapiens, UniProt P10635); test: Time dependent inhibition of CYP2D6 (unknown origin); format: ADME
Cytochrome P450 2C19 [12] = target: T4, Cytochrome P450 2C19 (Homo sapiens, UniProt P33261); test: Time dependent inhibition of CYP2C19 (unknown origin); format: ADME
[13] = target: Cyclin-dependent kinase 9 (Homo sapiens, UniProt P50750); test: Inhibition of CDK9 (unknown origin)
[14] = Metabolic stability in dog hepatocytes assessed as half life; format: ADME, cell-based, Canis lupus familiaris, Hepatocyte
Cytochrome P450 2C9 [15] = target: T2, Cytochrome P450 2C9; test: Time dependent inhibition of CYP2C9 (unknown origin); format: ADME
[16] = Toxicity in mouse assessed as change in body weight at 10 mg/kg, iv measured upto 28 days; format: organism-based; conditions: in vivo, 672 h, time < 28 day
[17] = Clearance in Beagle dog at 1 mg/kg, iv; format: ADME, organism-based, Canis lupus familiaris; conditions: in vivo
[18] = target: Voltage-gated inwardly rectifying potassium channel KCNH2 (Homo sapiens, UniProt Q12809); test: Inhibition of hERG upto 30 uM; format: toxicity
[19] = Half life in CD-1 mouse at 2 mg/kg, iv; format: ADME, organism-based; conditions: CD-1, mouse, in vivo
Cytochrome P450 3A4 [20] = target: T5, Cytochrome P450 3A4 (Homo sapiens, UniProt P08684); test: Induction of CYP3A4 (unknown origin); format: ADME
[21] = Clearance in Sprague-Dawley rat at 4 mg/kg, iv; format: ADME, organism-based; conditions: in vivo
[22] = Plasma protein binding in human; format: ADME, cell-free; conditions: read-out: PPB (converted)
[23] = Half life in Beagle dog at 1 mg/kg, iv; format: ADME, organism-based, Canis lupus familiaris; conditions: in vivo
MV4-11 [24] = test: Antitumor activity against human MV4-11 cells xenografted in mouse assessed as reduction in Mcl1 level in tumor at 5 to 15 mg/kg, iv measured upto 24 hrs by Western blot analysis; format: functional, organism-based; conditions: dose 5-15 mg/kg
[25] = target: Cyclin-dependent kinase 1 (Homo sapiens, UniProt P06493); test: Inhibition of CDK1 (unknown origin)
Cytochrome P450 2C19 [26] = target: T4, Cytochrome P450 2C19; test: Inhibition of CYP2C19 (unknown origin); format: ADME
Cytochrome P450 3A4 [27] = target: T5, Cytochrome P450 3A4; test: Time dependent inhibition of CYP3A4 (unknown origin); format: ADME
MV4-11 [28] = test: Antitumor activity against human MV4-11 cells xenografted in mouse assessed as tumor growth inhibition at 10 mg/kg, iv measured upto 28 days; format: functional; conditions: MV4-11, 672 h, time <= 28 day, read-out: TGI
MV4-11 [29] = test: Antitumor activity against human MV4-11 cells xenografted in mouse assessed as upregulation of caspase-3 level in tumor at 5 to 15 mg/kg, iv by Western blot analysis; format: functional, organism-based; conditions: dose 5-15 mg/kg, time <= 24.0 hrs
[30] = AUC (0 to 24 hrs) in Beagle dog at 1 mg/kg, iv; format: ADME, organism-based, Canis lupus familiaris; conditions: in vivo
[31] = Metabolic stability in rat hepatocytes assessed as half life; format: ADME, cell-based, Hepatocyte
Cytochrome P450 2B6 = target: T6, Cytochrome P450 2B6 (Homo sapiens, UniProt P20813); test: Inhibition of CYP2B6 (unknown origin); format: ADME
T6 sequence (P20813 whole entry): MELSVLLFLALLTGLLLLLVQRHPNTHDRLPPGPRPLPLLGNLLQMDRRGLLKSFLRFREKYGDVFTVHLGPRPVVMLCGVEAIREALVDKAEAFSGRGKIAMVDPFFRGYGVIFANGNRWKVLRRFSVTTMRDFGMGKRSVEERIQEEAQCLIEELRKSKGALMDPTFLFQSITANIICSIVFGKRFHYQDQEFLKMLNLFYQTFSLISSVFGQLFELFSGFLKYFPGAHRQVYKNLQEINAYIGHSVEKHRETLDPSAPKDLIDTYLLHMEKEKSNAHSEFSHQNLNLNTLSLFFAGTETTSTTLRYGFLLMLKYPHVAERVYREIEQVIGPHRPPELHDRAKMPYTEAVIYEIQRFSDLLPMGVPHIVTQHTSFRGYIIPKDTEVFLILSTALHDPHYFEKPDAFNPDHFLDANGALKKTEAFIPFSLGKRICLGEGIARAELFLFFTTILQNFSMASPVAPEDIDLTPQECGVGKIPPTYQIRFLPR

MV4-11 [32] = test: Antiproliferative activity against human MV4-11 cells assessed as cell viability; format: functional, cell-based
[33] = Aqueous solubility of compound at pH 4; format: physicochemical
[34] = AUC (0 to 24 hrs) in Sprague-Dawley rat at 4 mg/kg, iv; format: ADME, organism-based; conditions: in vivo
[35] = Volume of distribution in Sprague-Dawley rat at 4 mg/kg, iv; format: ADME, organism-based; conditions: in vivo
[36] = Metabolic stability in monkey hepatocytes assessed as half life; format: ADME, cell-based, Macaca mulatta, Hepatocyte; conditions: rhesus monkey
[37] = Permeability across apical to basolateral side in human Caco-2 cells; format: ADME, cell-based; conditions: read-out: permeability
[38] = Volume of distribution in CD-1 mouse at 2 mg/kg, iv; format: ADME, organism-based; conditions: CD-1, mouse, in vivo, read-out: Vd
[39] = Metabolic stability in human hepatocytes assessed as half life; format: ADME, cell-based, Hepatocyte
Cytochrome P450 2D6 [40] = target: T3, Cytochrome P450 2D6; test: Inhibition of CYP2D6 (unknown origin); format: ADME
Cytochrome P450 1A2 [41] = target: T7, Cytochrome P450 1A2 (Homo sapiens, UniProt P05177); test: Time dependent inhibition of CYP1A2 (unknown origin); format: ADME
T7 sequence (P05177 whole entry): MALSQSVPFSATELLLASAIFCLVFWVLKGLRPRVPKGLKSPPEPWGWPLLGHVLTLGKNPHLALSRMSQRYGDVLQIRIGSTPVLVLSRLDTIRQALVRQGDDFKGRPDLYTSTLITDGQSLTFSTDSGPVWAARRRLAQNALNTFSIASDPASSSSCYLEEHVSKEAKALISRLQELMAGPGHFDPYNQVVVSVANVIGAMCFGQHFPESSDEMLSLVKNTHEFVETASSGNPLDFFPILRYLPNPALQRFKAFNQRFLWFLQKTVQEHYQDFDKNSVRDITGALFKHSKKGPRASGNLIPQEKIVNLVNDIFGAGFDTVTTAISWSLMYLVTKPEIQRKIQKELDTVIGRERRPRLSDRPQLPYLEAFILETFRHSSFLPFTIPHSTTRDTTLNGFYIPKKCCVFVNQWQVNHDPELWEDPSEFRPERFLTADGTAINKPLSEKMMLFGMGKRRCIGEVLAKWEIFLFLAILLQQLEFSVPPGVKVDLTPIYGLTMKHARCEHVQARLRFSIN

[42] = Efflux ratio of permeability basolateral to apical side over apical to basolateral side in human Caco-2 cells; format: ADME, cell-based
[43] = Half life in Sprague-Dawley rat at 4 mg/kg, iv; format: ADME, organism-based; conditions: in vivo
Cytochrome P450 1A2 [44] = target: T7, Cytochrome P450 1A2; test: Inhibition of CYP1A2 (unknown origin); format: ADME
[45] = Permeability across basolateral to apical side in human Caco-2 cells; format: ADME, cell-based; conditions: read-out: permeability
[46] = Clearance in CD-1 mouse at 2 mg/kg, iv; format: ADME, organism-based; conditions: in vivo
Cytochrome P450 3A4 [47] = target: T5, Cytochrome P450 3A4; test: Inhibition of CYP3A4 (unknown origin); format: ADME
[48] = AUC (0 to 24 hrs) in CD-1 mouse at 2 mg/kg, iv; format: ADME, organism-based; conditions: CD-1, mouse, in vivo

T5 sequence (P08684 whole entry): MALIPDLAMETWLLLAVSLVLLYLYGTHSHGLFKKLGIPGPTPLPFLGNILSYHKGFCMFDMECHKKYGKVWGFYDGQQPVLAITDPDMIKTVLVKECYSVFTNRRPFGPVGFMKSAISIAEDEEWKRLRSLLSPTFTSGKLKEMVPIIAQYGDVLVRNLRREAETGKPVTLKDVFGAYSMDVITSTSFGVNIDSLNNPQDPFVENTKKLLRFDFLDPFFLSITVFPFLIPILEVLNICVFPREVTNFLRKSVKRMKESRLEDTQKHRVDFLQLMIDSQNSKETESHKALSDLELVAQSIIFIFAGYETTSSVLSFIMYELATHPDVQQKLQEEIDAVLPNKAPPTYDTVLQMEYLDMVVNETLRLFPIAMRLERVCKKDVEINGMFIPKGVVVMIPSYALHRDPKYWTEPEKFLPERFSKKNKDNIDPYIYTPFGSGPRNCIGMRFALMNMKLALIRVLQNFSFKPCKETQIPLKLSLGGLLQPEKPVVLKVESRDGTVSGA
T3 sequence (P10635 whole entry): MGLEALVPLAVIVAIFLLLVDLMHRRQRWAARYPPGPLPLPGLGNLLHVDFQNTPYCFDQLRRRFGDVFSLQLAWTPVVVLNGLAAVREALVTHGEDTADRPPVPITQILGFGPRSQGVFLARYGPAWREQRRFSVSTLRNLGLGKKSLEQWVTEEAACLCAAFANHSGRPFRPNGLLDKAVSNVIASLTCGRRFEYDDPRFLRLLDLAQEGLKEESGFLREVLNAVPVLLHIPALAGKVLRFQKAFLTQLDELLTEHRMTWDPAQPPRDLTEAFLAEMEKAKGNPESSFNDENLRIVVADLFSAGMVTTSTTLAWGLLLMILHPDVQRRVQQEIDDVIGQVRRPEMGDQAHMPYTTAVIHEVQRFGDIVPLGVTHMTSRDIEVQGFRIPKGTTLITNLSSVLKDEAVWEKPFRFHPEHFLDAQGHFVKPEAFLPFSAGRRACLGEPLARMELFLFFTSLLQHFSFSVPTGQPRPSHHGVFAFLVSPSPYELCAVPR
T4 sequence (P33261 whole entry): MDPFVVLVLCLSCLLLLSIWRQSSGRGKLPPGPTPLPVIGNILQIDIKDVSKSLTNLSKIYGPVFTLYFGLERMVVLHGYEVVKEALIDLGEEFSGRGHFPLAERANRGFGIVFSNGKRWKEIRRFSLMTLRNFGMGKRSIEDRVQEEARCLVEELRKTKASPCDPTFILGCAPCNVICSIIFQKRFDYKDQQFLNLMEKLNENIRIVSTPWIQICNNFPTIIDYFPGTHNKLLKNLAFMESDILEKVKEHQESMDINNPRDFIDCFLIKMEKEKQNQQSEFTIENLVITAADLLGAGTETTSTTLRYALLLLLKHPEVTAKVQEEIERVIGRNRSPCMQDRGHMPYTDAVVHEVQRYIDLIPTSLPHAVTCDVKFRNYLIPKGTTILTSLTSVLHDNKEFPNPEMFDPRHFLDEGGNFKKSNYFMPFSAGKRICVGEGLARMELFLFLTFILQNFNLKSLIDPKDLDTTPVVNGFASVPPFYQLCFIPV
T2 sequence (P11712 whole entry): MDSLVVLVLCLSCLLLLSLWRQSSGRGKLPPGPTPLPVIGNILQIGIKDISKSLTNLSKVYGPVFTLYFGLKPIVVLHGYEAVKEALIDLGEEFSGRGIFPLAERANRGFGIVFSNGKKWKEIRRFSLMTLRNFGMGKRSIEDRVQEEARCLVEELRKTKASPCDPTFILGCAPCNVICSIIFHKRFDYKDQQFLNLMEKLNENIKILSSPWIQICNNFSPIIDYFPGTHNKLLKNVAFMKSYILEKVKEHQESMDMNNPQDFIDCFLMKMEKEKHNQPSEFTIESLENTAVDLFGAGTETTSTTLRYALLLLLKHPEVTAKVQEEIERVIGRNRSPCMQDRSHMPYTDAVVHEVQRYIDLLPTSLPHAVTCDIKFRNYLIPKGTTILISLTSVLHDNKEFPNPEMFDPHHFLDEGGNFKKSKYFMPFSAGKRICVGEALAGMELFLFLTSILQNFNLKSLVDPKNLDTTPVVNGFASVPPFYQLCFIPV
Voltage-gated inwardly rectifying potassium channel KCNH2, sequence (Q12809 whole entry): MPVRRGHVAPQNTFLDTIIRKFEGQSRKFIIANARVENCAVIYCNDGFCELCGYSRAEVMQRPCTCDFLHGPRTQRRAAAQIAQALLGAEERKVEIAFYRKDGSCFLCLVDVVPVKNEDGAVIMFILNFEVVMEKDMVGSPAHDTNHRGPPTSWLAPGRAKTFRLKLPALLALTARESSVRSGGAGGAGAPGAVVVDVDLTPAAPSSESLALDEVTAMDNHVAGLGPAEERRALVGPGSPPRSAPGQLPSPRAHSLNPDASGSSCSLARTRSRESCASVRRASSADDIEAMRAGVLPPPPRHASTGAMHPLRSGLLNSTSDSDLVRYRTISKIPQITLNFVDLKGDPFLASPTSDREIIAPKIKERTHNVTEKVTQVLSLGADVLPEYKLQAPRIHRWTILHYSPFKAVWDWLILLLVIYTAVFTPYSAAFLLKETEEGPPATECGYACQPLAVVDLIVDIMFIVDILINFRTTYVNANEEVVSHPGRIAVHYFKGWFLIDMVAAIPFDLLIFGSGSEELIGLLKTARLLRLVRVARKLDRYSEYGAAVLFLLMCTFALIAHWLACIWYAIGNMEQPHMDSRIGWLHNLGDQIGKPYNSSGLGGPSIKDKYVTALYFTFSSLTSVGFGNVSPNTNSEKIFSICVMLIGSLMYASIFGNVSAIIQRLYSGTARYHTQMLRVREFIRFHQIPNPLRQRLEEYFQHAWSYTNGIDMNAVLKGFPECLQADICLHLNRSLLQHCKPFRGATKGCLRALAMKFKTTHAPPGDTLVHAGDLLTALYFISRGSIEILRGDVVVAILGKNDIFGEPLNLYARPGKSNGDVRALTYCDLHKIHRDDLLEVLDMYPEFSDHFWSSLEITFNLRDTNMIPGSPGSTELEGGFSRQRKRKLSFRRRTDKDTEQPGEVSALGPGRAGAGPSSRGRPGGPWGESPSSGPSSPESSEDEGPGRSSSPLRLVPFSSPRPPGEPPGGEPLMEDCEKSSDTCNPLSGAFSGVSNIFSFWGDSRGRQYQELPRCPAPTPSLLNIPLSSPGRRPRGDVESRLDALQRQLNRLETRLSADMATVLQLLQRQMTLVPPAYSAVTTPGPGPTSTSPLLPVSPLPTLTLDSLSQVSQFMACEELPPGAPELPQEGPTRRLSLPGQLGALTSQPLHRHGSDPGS
Cyclin-dependent kinase 1, sequence (P06493 whole entry): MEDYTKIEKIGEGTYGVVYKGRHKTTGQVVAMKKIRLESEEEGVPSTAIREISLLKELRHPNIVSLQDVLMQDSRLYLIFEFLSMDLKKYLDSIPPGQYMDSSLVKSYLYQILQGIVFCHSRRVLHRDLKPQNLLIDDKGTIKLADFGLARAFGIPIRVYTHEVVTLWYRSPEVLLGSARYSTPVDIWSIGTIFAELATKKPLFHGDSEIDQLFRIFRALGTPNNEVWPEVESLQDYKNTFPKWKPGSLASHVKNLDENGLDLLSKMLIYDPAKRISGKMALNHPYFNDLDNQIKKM
Cyclin-dependent kinase 9, sequence (P50750 whole entry): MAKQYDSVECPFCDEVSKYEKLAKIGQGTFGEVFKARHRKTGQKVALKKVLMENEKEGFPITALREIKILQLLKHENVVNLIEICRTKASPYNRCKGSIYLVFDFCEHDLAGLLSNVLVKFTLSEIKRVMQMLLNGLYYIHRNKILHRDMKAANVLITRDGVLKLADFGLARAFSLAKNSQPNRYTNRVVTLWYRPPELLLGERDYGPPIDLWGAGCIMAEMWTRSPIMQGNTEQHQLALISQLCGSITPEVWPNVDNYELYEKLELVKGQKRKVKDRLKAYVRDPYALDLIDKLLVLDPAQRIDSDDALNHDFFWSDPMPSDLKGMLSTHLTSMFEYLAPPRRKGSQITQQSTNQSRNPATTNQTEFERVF

SMILES: Cn1cc(-c2c(Cl)cnc3[nH]c(C4CCNCC4)cc23)cn1
- Activity (MV4-11 [1]): Active
- IC50 (Cytochrome P450 2C8 [2]): > 100000 nM
- TDI (Cytochrome P450 2C8 [3]): Not_active
- IC50 [4]: 267 nM
- IC50 (Cytochrome P450 2C9 [5]): > 100000 nM
- Ratio IC50 [6]: 72.5
- half-life [7]: 1.35 h
- Activity (MV4-11 [8]): Dose-dependent-effect
- Ratio IC50 [9]: 45.2
- TGI (SNU-16): Dose-dependent-effect; Partial Response Is Observed In 2/8 Mouse At 5 Mg/Kg Group, Partial Response Observed In 6/8 Mouse At 10 Mg/Kg And Partial Response Is Observed In 7/8 Mouse At 15 Mg/Kg Dose Group.
- Vd [10]: 7.62 L/kg
- TDI (Cytochrome P450 2D6 [11]): Not_active
- TDI (Cytochrome P450 2C19 [12]): Not_active
- IC50 [13]: 5.9 nM
- half-life [14]: > 4.66 h
- TDI (Cytochrome P450 2C9 [15]): Not_active
- Activity [16]: Non-toxic
- clearance [17]: 29.1 mL/min/kg
- inhibition (INH) [18]: Not_active
- half-life [19]: 1.47 h
- Activity (Cytochrome P450 3A4 [20]): Not_active
- clearance [21]: 52 mL/min/kg
- fraction unbound [22]: 0.711
- half-life [23]: 3.96 h
- Activity (MV4-11 [24]): Active
- IC50 [25]: 428 nM
- IC50 (Cytochrome P450 2C19 [26]): 96200 nM
- TDI (Cytochrome P450 3A4 [27]): Not_active
- inhibition in vivo at 10 mg/kg (MV4-11 [28]): 80%
- Activity (MV4-11 [29]): Time-dependent-effect
- AUC(0-t) [30]: 568 ng·h/mL
- half-life [31]: 3.71 h
- IC50 (Cytochrome P450 2B6): > 100000 nM
- IC50 (MV4-11 [32]): 53.4 nM
- solubility [33]: 1500 µg/mL (≈ 4.75 mM)
- AUC(0-t) [34]: 1250 ng·h/mL
- Vd [35]: 11.2 L/kg
- half-life [36]: 4.4 h
- Papp A→B [37]: 0.82 ×10⁻⁶ cm/s
- Vd [38]: 10.2 L/kg
- half-life [39]: > 4.66 h
- IC50 (Cytochrome P450 2D6 [40]): > 100000 nM
- TDI (Cytochrome P450 1A2 [41]): Not_active
- efflux ratio [42]: 17
- half-life [43]: 3.2 h
- IC50 (Cytochrome P450 1A2 [44]): 44700 nM
- Papp B→A [45]: 13.9 ×10⁻⁶ cm/s
- clearance [46]: 115 mL/min/kg
- IC50 (Cytochrome P450 3A4 [47]): > 100000 nM
- AUC(0-t) [48]: 0.916 µM·h

SMILES: COCCN1CCC(c2cc3c(-c4cnn(CC5CC5)c4)c(Cl)cnc3[nH]2)CC1
- Ratio IC50 [6]: 146
- Ratio IC50 [9]: 22.1
- IC50 (MV4-11 [32]): 63.8 nM
